Tests used:
[1] = tested on: M. catarrhalis (ATCC 25238); test: MIC, NCCLS broth microdilution; type: cell-based, Moraxella (now Branhamella) catarrhalis; details: H = M. catarrhalis (ATCC 25238)
How it was run: (§1)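 Minimal inhibitory concentration determined by NCCLS broth microdilution in microtiter plates per documents M7-A4, M11-A4 and M27-T. S. aureus ATCC 27660 is a methicillin-resistant strain. The antifungal test on C. albicans followed the method recommended in the Manual of Clinical Microbiology (1995).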

C. albicans ATCC 38247 = test: MIC, antifungal assay; type: cell-based, Candida albicans; details: F = C. albicans ATCC 38247
How it was run: as §1

S. aureus ATCC 13709 = test: MIC, NCCLS broth microdilution; type: cell-based, Staphylococcus aureus; details: A = S. aureus ATCC 13709 (MSSA)
How it was run: (§2)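 MIC values come from microtiter-plate broth microdilution run to NCCLS standards (M7-A4, M11-A4, M27-T). For C. albicans ATCC 38247, the antifungal procedure of the 1995 Manual of Clinical Microbiology was used instead.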

S. aureus ATCC 27660 = test: MIC, NCCLS broth microdilution; type: cell-based, Staphylococcus aureus; details: B = S. aureus ATCC 27660 (MRSA)
How it was run: as §1

B. cereus ATCC 11778 = test: MIC, NCCLS broth microdilution; type: cell-based, Bacillus cereus; details: D = B. cereus ATCC 11778
How it was run: as §1

S. pneumoniae ATCC 49619 = test: MIC, NCCLS broth microdilution; type: cell-based, Streptococcus pneumoniae; details: E = S. pneumoniae ATCC 49619
How it was run: as §2

E. faecalis ATCC 29212 = test: MIC, NCCLS broth microdilution; type: cell-based, Enterococcus faecalis; details: C = E. faecalis ATCC 29212
How it was run: as §2

E. coli ATCC 25922 = test: MIC, NCCLS broth microdilution; type: cell-based, Escherichia coli; details: G = E. coli ATCC 25922
How it was run: as §2

Row | SMILES | Minimum Inhibitory Concentration (MIC) [1] | Minimum Inhibitory Concentration (MIC) (C. albicans ATCC 38247) | Minimum Inhibitory Concentration (MIC) (S. aureus ATCC 13709) | Minimum Inhibitory Concentration (MIC) (S. aureus ATCC 27660) | Minimum Inhibitory Concentration (MIC) (B. cereus ATCC 11778) | Minimum Inhibitory Concentration (MIC) (S. pneumoniae ATCC 49619) | Minimum Inhibitory Concentration (MIC) (E. faecalis ATCC 29212) | Minimum Inhibitory Concentration (MIC) (E. coli ATCC 25922)
1 | Cn1cc(NC(=O)c2cc3ccccc3cn2)cc1C(=O)Nc1ccc(C(=O)Nc2cn(C)c(C(=O)NCCN3CCC(F)CC3)n2)cc1 [Compound A-41] | +++ (MIC ≦ 4 μg/mL) | >32 µg/mL | +++ (MIC ≦ 4 μg/mL) | +++ (MIC ≦ 4 μg/mL) | +++ (MIC ≦ 4 μg/mL) | +++ (MIC ≦ 4 μg/mL) | +++ (MIC ≦ 4 μg/mL) | >32 µg/mL
2 | Cn1cc(NC(=O)c2cc3ccccc3cn2)cc1C(=O)Nc1ccc(C(=O)Nc2cn(C)c(C(=O)NCCNCCOCCOCCN)n2)cc1 [Compound A-42] | >32 µg/mL | + (12 ≦ MIC ≦ 32 μg/mL) | +++ (MIC ≦ 4 μg/mL) | +++ (MIC ≦ 4 μg/mL) | ++ (4 < MIC < 12 μg/mL) | + (12 ≦ MIC ≦ 32 μg/mL) | +++ (MIC ≦ 4 μg/mL) | >32 µg/mL
3 | Cn1cc(NC(=O)c2cc3ccccc3cn2)cc1C(=O)Nc1ccc(C(=O)Nc2cn(C)c(C(=O)NCCN3CCNCC3)n2)cc1 [Compound A-47] | +++ (MIC ≦ 4 μg/mL) | + (12 ≦ MIC ≦ 32 μg/mL) | +++ (MIC ≦ 4 μg/mL) | +++ (MIC ≦ 4 μg/mL) | +++ (MIC ≦ 4 μg/mL) | +++ (MIC ≦ 4 μg/mL) | +++ (MIC ≦ 4 μg/mL) | >32 µg/mL
4 | Cn1cc(NC(=O)c2cc3ccccc3cn2)cc1C(=O)Nc1ccc(C(=O)Nc2cn(C)c(C(=O)NCCNC(CO)(CO)CO)n2)cc1 [Compound A-49] | >32 µg/mL | >32 µg/mL | +++ (MIC ≦ 4 μg/mL) | +++ (MIC ≦ 4 μg/mL) | >32 µg/mL | +++ (MIC ≦ 4 μg/mL) | + (12 ≦ MIC ≦ 32 μg/mL) | >32 µg/mL
5 | C[C@@H]1CN(CCNC(=O)c2nc(NC(=O)c3ccc(NC(=O)c4cc(NC(=O)c5cc6ccccc6cn5)cn4C)cc3)cn2C)C[C@H](C)O1 [Compound A-51] | +++ (MIC ≦ 4 μg/mL) | >32 µg/mL | +++ (MIC ≦ 4 μg/mL) | +++ (MIC ≦ 4 μg/mL) | +++ (MIC ≦ 4 μg/mL) | +++ (MIC ≦ 4 μg/mL) | +++ (MIC ≦ 4 μg/mL) | >32 µg/mL
6 | Cn1cc(NC(=O)c2cc3ccccc3cn2)cc1C(=O)Nc1ccc(C(=O)Nc2cn(C)c(C(=O)NCCN3CCN(C(=O)OC(C)(C)C)CC3)n2)cc1 [Compound A-55] | + (12 ≦ MIC ≦ 32 μg/mL) | >32 µg/mL | +++ (MIC ≦ 4 μg/mL) | +++ (MIC ≦ 4 μg/mL) | +++ (MIC ≦ 4 μg/mL) | +++ (MIC ≦ 4 μg/mL) | +++ (MIC ≦ 4 μg/mL) | >32 µg/mL
7 | Cn1cc(NC(=O)c2cc3ccccc3cn2)cc1C(=O)Nc1ccc(C(=O)Nc2cn(C)c(C(=O)NCCN3CCN(S(C)(=O)=O)CC3)n2)cc1 [Compound A-56] | +++ (MIC ≦ 4 μg/mL) | >32 µg/mL | +++ (MIC ≦ 4 μg/mL) | +++ (MIC ≦ 4 μg/mL) | +++ (MIC ≦ 4 μg/mL) | +++ (MIC ≦ 4 μg/mL) | +++ (MIC ≦ 4 μg/mL) | >32 µg/mL
8 | Cn1cc(NC(=O)c2cc3ccccc3cn2)cc1C(=O)Nc1ccc(C(=O)Nc2cn(C)c(C(=O)NCCN3CCC(OC(=O)CCN(CCO)CCO)CC3)n2)cc1 [Compound A-57] | +++ (MIC ≦ 4 μg/mL) | >32 µg/mL | +++ (MIC ≦ 4 μg/mL) | +++ (MIC ≦ 4 μg/mL) | +++ (MIC ≦ 4 μg/mL) | +++ (MIC ≦ 4 μg/mL) | +++ (MIC ≦ 4 μg/mL) | ++ (4 < MIC < 12 μg/mL)

The remaining lines, values ahead:

Row | Minimum Inhibitory Concentration (MIC) [1] | Minimum Inhibitory Concentration (MIC) (C. albicans ATCC 38247) | Minimum Inhibitory Concentration (MIC) (S. aureus ATCC 13709) | Minimum Inhibitory Concentration (MIC) (S. aureus ATCC 27660) | Minimum Inhibitory Concentration (MIC) (B. cereus ATCC 11778) | Minimum Inhibitory Concentration (MIC) (S. pneumoniae ATCC 49619) | Minimum Inhibitory Concentration (MIC) (E. faecalis ATCC 29212) | Minimum Inhibitory Concentration (MIC) (E. coli ATCC 25922) | SMILES
9 | >32 µg/mL | >32 µg/mL | +++ (MIC ≦ 4 μg/mL) | +++ (MIC ≦ 4 μg/mL) | +++ (MIC ≦ 4 μg/mL) | +++ (MIC ≦ 4 μg/mL) | +++ (MIC ≦ 4 μg/mL) | >32 µg/mL | Cn1cc(NC(=O)c2cc3ccccc3cn2)cc1C(=O)Nc1ccc(C(=O)Nc2cn(C)c(C(=O)NCCNCCCO)n2)cc1 [Compound A-43]
10 | + (12 ≦ MIC ≦ 32 μg/mL) | >32 µg/mL | +++ (MIC ≦ 4 μg/mL) | +++ (MIC ≦ 4 μg/mL) | +++ (MIC ≦ 4 μg/mL) | +++ (MIC ≦ 4 μg/mL) | +++ (MIC ≦ 4 μg/mL) | >32 µg/mL | Cn1cc(NC(=O)c2cc3ccccc3cn2)cc1C(=O)Nc1ccc(C(=O)Nc2cn(C)c(C(=O)NCCNCCO)n2)cc1 [Compound A-45]
11 | ++ (4 < MIC < 12 μg/mL) | >32 µg/mL | +++ (MIC ≦ 4 μg/mL) | +++ (MIC ≦ 4 μg/mL) | +++ (MIC ≦ 4 μg/mL) | +++ (MIC ≦ 4 μg/mL) | +++ (MIC ≦ 4 μg/mL) | >32 µg/mL | CC(C)C(CO)NCCNC(=O)c1nc(NC(=O)c2ccc(NC(=O)c3cc(NC(=O)c4cc5ccccc5cn4)cn3C)cc2)cn1C (stereo not drawn) [Compound A-46]
12 | +++ (MIC ≦ 4 μg/mL) | >32 µg/mL | +++ (MIC ≦ 4 μg/mL) | +++ (MIC ≦ 4 μg/mL) | +++ (MIC ≦ 4 μg/mL) | +++ (MIC ≦ 4 μg/mL) | +++ (MIC ≦ 4 μg/mL) | >32 µg/mL | CCOC(=O)C1CCN(CCNC(=O)c2nc(NC(=O)c3ccc(NC(=O)c4cc(NC(=O)c5cc6ccccc6cn5)cn4C)cc3)cn2C)CC1 [Compound A-48]
13 | >32 µg/mL | >32 µg/mL | +++ (MIC ≦ 4 μg/mL) | +++ (MIC ≦ 4 μg/mL) | + (12 ≦ MIC ≦ 32 μg/mL) | +++ (MIC ≦ 4 μg/mL) | ++ (4 < MIC < 12 μg/mL) | >32 µg/mL | Cn1cc(NC(=O)c2cc3ccccc3cn2)cc1C(=O)Nc1ccc(C(=O)Nc2cn(C)c(C(=O)NCCNC(CO)CO)n2)cc1 [Compound A-50]
14 | +++ (MIC ≦ 4 μg/mL) | >32 µg/mL | +++ (MIC ≦ 4 μg/mL) | +++ (MIC ≦ 4 μg/mL) | +++ (MIC ≦ 4 μg/mL) | +++ (MIC ≦ 4 μg/mL) | +++ (MIC ≦ 4 μg/mL) | >32 µg/mL | CC(C)N1CCN(CCC(=O)OC2CCN(CCNC(=O)c3nc(NC(=O)c4ccc(NC(=O)c5cc(NC(=O)c6cc7ccccc7cn6)cn5C)cc4)cn3C)CC2)CC1 [Compound A-53]
15 | >32 µg/mL | >32 µg/mL | +++ (MIC ≦ 4 μg/mL) | +++ (MIC ≦ 4 μg/mL) | +++ (MIC ≦ 4 μg/mL) | +++ (MIC ≦ 4 μg/mL) | +++ (MIC ≦ 4 μg/mL) | >32 µg/mL | Cn1cc(NC(=O)c2cc3ccccc3cn2)cc1C(=O)Nc1ccc(C(=O)Nc2cn(C)c(C(=O)NCCN(CCO)CCO)n2)cc1 [Compound A-54]
